Source: the supplement of paper PMC10307832

Columns and labels:
Experiment in all cases: relative viability (nuclei count vs DMSO), 5 days (fraction); higher = more cells survive
[1] = compound: CCN(CCO)CCCC(C)Nc1ccnc2cc(Cl)ccc12 [Hydroxychloroquine] + CCNC(=O)c1noc(-c2cc(C(C)C)c(O)cc2O)c1-c1ccc(CN2CCOCC2)cc1 [Luminespib] (partner 0.01 µM)
Method in brief: (§1)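 Lung cancer cell lines in 1536-well plates were dosed by pin tool the day after seeding, either with one drug alone or with a fixed anchor-drug dose plus five library-drug doses (not always all listed) in √10 steps. After 5 days, cells were fixed and their nuclei stained in one step (final 0.05% Triton X-100, 1% formaldehyde, 1 ug/ml Hoechst), then counted on 4× images. Relative viability is the nuclei count in treated wells divided by that in vehicle wells. Values are medians of duplicate plates.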

[2] = compound: CCN(CCO)CCCC(C)Nc1ccnc2cc(Cl)ccc12 [Hydroxychloroquine] + COc1cccc2cc(-c3nc([C@H]4CC[C@H](C(=O)O)CC4)n4ncnc(N)c34)[nH]c12 [OSI-027] (partner 0.5 µM)
Method in brief: as §1

[3] = compound: CCN(CCO)CCCC(C)Nc1ccnc2cc(Cl)ccc12 [Hydroxychloroquine] + CS(=O)(=O)N1CCN(Cc2cc3nc(-c4cccc5[nH]ncc45)nc(N4CCOCC4)c3s2)CC1 [Pictilisib] (partner 1 µM)
Method in brief: as §1

[4] = compound: CCN(CCO)CCCC(C)Nc1ccnc2cc(Cl)ccc12 [Hydroxychloroquine] + CC(=O)c1c(C)c2cnc(Nc3ccc(N4CCNCC4)cn3)nc2n(C2CCCC2)c1=O [Palbociclib] (partner 0.5 µM)
Method in brief: as §1

| Cell Line | relative viability ([1]; first compound 0.5 µM) | relative viability ([1]; first compound 1.581 µM) | relative viability ([1]; first compound 5 µM) | relative viability ([1]; first compound 15.81 µM) | relative viability ([1]; first compound 50 µM) | relative viability ([2]; first compound 0.5 µM) | relative viability ([2]; first compound 1.581 µM) | relative viability ([2]; first compound 5 µM) | relative viability ([2]; first compound 15.81 µM) | relative viability ([2]; first compound 50 µM) | relative viability ([3]; first compound 0.5 µM) | relative viability ([3]; first compound 1.581 µM) | relative viability ([3]; first compound 5 µM) | relative viability ([3]; first compound 15.81 µM) | relative viability ([3]; first compound 50 µM) | relative viability ([4]; first compound 0.5 µM) | relative viability ([4]; first compound 1.581 µM) | relative viability ([4]; first compound 5 µM) | relative viability ([4]; first compound 15.81 µM) | relative viability ([4]; first compound 50 µM) |
| --- | --- | --- | --- | --- | --- | --- | --- | --- | --- | --- | --- | --- | --- | --- | --- | --- | --- | --- | --- | --- |
| LCLC-97TM1 | 0.876 | 0.833 | 0.787 | 0.768 | 0.867 | 0.614 | 0.465 | 0.569 | 0.563 | 0.622 | 0.265 | 0.183 | 0.277 | 0.182 | 0.131 | 0.223 | 0.227 | 0.313 | 0.275 | 0.21 |
| HARA | 1.15 | 1.09 | 0.789 | 0.542 | 1.01 | 0.608 | 0.416 | 0.469 | 0.486 | 0.435 | 0.316 | 0.383 | 0.508 | 0.407 | 0.362 | 0.239 | 0.292 | 0.26 | 0.302 | 0.23 |
| HCC-78 |  |  |  |  |  | 0.377 | 0.376 | 0.366 | 0.323 | 0.349 | 0.21 | 0.176 | 0.221 | 0.224 | 0.165 | 0.469 | 0.48 | 0.483 | 0.527 | 0.451 |
| NCI-H1666 | 1.02 | 0.989 | 0.981 | 1.01 | 0.923 | 0.816 | 0.81 | 0.834 | 0.82 | 0.808 | 0.519 | 0.409 | 0.377 | 0.477 | 0.402 | 0.651 | 0.67 | 0.653 | 0.646 | 0.622 |
| NCI-H2347 | 0.308 | 0.342 | 0.531 | 0.729 | 0.361 | 0.528 | 0.356 | 0.387 | 0.322 | 0.336 | 0.511 | 0.534 | 0.573 | 0.6 | 0.637 | 0.457 | 0.418 | 0.414 | 0.515 | 0.383 |
| PC-14 | 0.17 | 0.151 | 0.17 | 0.173 | 0.154 | 0.958 | 0.586 | 0.872 | 0.861 | 0.927 | 0.7 | 0.687 | 0.683 | 0.595 | 0.78 | 0.481 | 0.545 | 0.535 | 0.554 | 0.394 |
| NCI-H2023 | 0.75 | 0.657 | 0.784 | 0.899 | 0.642 | 0.468 | 0.336 | 0.402 | 0.338 | 0.442 | 0.332 | 0.23 | 0.23 | 0.224 | 0.249 | 0.376 | 0.431 | 0.349 | 0.396 | 0.386 |
| 201T | 0.992 | 1.04 | 1.07 | 1.03 | 1.05 | 0.731 | 0.738 | 0.721 | 0.827 | 0.965 | 0.687 | 0.555 | 0.641 | 0.631 | 0.698 | 0.339 | 0.351 | 0.378 | 0.379 | 0.384 |
